Patent US20240409585A1, “MACROCYCLIC IMMUNOMODULATORS” (priority 2021, published 2024)
Read-outs that look alike come from different tables or passages of the source. Numbered stars: 1 amine (or outer) side, 2 acyl side, 3 side chain; on linkers, the order of the positions; unused ones are H or OH. Bridge positions count the residues as written; N and C are the ends. Square brackets hold non-standard residues; d marks the D form. Peptide text beside a SMILES is read from it. * marks the point of attachment. ξ: configuration not given here. Bip(4'-COOH) = N[C@@H](Cc1ccc(-c2ccc(C(=O)O)cc2)cc1)C(=O)O; Bip(4'-NHAc) = CC(=O)Nc1ccc(-c2ccc(C[C@H](N)C(=O)O)cc2)cc1; X13 = O=C(CCc1ccccc1)NCc1cccc(C[C@H](N[*:1])C(=O)[*:2])c1; Phe(3-CF3) = N[C@@H](Cc1cccc(C(F)(F)F)c1)C(=O)O; X8 = N=C(N)NCc1cccc(C[C@H](N[*:1])C(=O)[*:2])c1; Ala(morpholin-4-yl) = N[C@@H](CN1CCOCC1)C(=O)O; Phe(4-CONH2) = NC(=O)c1ccc(C[C@H](N)C(=O)O)cc1; Phe(4-COOH) = N[C@@H](Cc1ccc(C(=O)O)cc1)C(=O)O; Bip = N[C@@H](Cc1ccc(-c2ccccc2)cc1)C(=O)O; Abu(3R-NH2) = C[C@@H](N)[C@H](N)C(=O)O; Phe(3-Me) = Cc1cccc(C[C@H](N)C(=O)O)c1; Abu(3S-NH2) = C[C@H](N)[C@H](N)C(=O)O; Val(3-OH) = CC(C)(O)[C@H](N)C(=O)O; hCha = N[C@@H](CCC1CCCCC1)C(=O)O; hPhe = N[C@@H](CCc1ccccc1)C(=O)O; 3Pal = N[C@@H](Cc1cccnc1)C(=O)O; Cha = N[C@@H](CC1CCCCC1)C(=O)O; Thr(3ξ) = CC(O)[C@H](N)C(=O)O; Carboxymethyl = O=C(O)C*; NMeA = CN[C@@H](C)C(=O)O; Orn = NCCC[C@H](N)C(=O)O; Dab = NCC[C@H](N)C(=O)O; Nva = CCC[C@H](N)C(=O)O

How the values were obtained:
[1] = biological target: T1, Alexa fluor-647 labeled human PD-L1-Ig binding to Jurkat cell line over-expressing human PD-1 (Homo sapiens, UniProt Q15116); assay: Jurkat-PD-1 Cell Binding High-Content Screening Assay (CBA): Method 3 (Alexa fluor-647 labeled PD-L1-Ig); conditions: Jurkat-PD-1 cells, Alexa fluor-647 labeled PD-L1-Ig 177 nM
T1 construct: expressed in transfected cells; host or cells: Jurkat
T1 sequence (Q15116 25-288): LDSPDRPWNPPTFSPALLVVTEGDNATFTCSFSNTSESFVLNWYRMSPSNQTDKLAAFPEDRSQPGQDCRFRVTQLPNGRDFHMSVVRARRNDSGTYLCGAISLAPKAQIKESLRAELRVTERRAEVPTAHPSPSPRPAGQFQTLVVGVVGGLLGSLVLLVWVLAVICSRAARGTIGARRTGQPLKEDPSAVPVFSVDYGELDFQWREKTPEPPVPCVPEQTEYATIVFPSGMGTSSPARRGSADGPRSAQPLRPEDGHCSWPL
Outline: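 Readout by high-content imaging of PFA-fixed, Hoechst-stained cells after 1 h with 177 nM (final) Alexa fluor-647 PD-L1-Ig. Compound was added first to hPD-1 Jurkat cells in RPMI plus 10% FCS for 2 h at 37 °C.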

[2] = biological target: T2, PD1-PDL1 protein-protein binding interaction [hPD1(25-167)-hIgG, hPD-L1 (19-239)-6xHis] (Homo sapiens, UniProt Q15116); assay: HTRF Assay (TR-FRET); conditions: 5 nM hPD1-hIgG, 5 nM hPD-L1-6xHis, 24 hours at 25° C.
T2 construct: hPD1(25-167)-hIgG, BMS
T2 sequence (Q15116 25-167): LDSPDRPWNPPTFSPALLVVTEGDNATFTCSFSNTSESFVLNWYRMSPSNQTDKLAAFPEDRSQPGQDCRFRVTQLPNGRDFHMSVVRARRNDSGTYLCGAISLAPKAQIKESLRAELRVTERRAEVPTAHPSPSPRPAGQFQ
Protocol: A time-resolved fluorescence resonance energy transfer (TR-FRET) assay was employed to measure the inhibition of the PD1-PDL1 protein-protein binding interaction. The reaction buffer was prepared by mixing the HiBlock buffer and LANCE detection buffer (PerkinElmer, TRF1011F and CR97-100) at a 1:1 ratio. Assay reactions contained 5 nM human programmed cell death 1 [hPD1(25-167)-hIgG, BMS], 5 nM human programmed cell death ligand 1 [hPD-L1 (19-239)-6×His, BMS], in the presence of 1 nM LANCE Eu-W1024 Anti-Human IgG (Eu-anti hIgG, PerkinElmer, AD0074) and 20 nM SureLight Allophycocyanin-anti-6×His antibody (APC-anti-6×His, PerkinElmer, AD0059H). Test compounds were evaluated in a 10-point dose-response format with serial three-fold dilutions starting from a 2 uM top concentration. Reactions were carried out in a total volume of 10 uL in 384-well microtiter plates (Proxiplate white, PerkinElmer, 6008289). Plates were sealed and incubated for 24 hours at 25° C. After 24 hours, the TR-FRET signal was measured using a PerkinElmer EnVision multimode plate reader and the resulting ratiometric data set (signal at 665 nm/615 nm, multiplied by a factor of 10,000) was recorded. The concentration giving half-maximal inhibition (the IC50) was obtained by fitting the data to a four-parameter logistic equation using Graphpad Prism or Dotmatics.

[3] = biological target: T3, PE-labeled human PD-L1-Ig binding to Jurkat cell line over-expressing human PD-1 (Jurkat-PD-1) (Homo sapiens, UniProt Q15116); assay: Jurkat-PD-1 Cell Binding High-Content Screening Assay (CBA): Method 1; conditions: Jurkat-PD-1 cells, PE-labeled PD-L1-Ig; μM; read-out: CBA Method 1 μM
T3 construct: expressed in transfected cells; host or cells: Jurkat
T3 sequence (Q15116 25-288): as the sequence (Q15116 25-288) above

[4] = biological target: T3, PE-labeled human PD-L1-Ig binding to Jurkat cell line over-expressing human PD-1 (Jurkat-PD-1); assay: Jurkat-PD-1 Cell Binding High-Content Screening Assay (CBA): Method 2 (presence and absence of tween-20); conditions: Jurkat-PD-1 cells, PE-labeled PD-L1-Ig 20 nM; presence or absence of tween-20 not given; head μM; read-out: CBA Method 2 μM
Outline: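 Compounds incubated with Jurkat cells overexpressing human PD-1 for 2 h at 37° C, tested with and without tween-20 to flag aggregation. PE-labeled human PD-L1-Ig (20 nM final) added in DMEM/10% FCS; binding read by high-content imaging.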

[5] = head μM, read-out: CBA Method 3 μM

Compound	IC50 ([1]; nM, read-out: CBA Method 3) [nM]	IC50 ([2]; head μM) [µM]	IC50 [3] [µM]	IC50 [4] [µM]	also measured
Cc1cccc(C[C@@H]2NC(=O)[C@H](CC(=O)O)NC(=O)[C@H](Cc3ccc(OCC(=O)O)cc3)NC(=O)[C@H](Cc3ccc(-c4ccc(C(=O)O)cc4)cc3)NC(=O)CSC[C@@H](C(=O)N[C@@H](CCN)C(N)=O)NC(=O)[C@H](CCCN)NC(=O)[C@H](C(C)C)NC(=O)[C@H](CC3CCCCC3)NC(=O)[C@H](CCN)NC(=O)[C@@H](CC(C)C)NC(=O)[C@H](C)N(C)C(=O)[C@H](CCC(N)=O)NC(=O)[C@H](Cc3ccc(-c4ccccc4)cc3)NC(=O)[C@H](Cc3ccc(C(=O)O)cc3)NC2=O)c1 [Example 5177] ({CH2CO}-[Bip(4'-COOH)]Y(Carboxymethyl)D[Phe(3-Me)][Phe(4-COOH)][Bip]Q[NMeA][dL][Dab][Cha]V[Orn]C[Dab]-NH2; thioether N-14)	7.6	0.03	–	–	–
CCC[C@@H]1NC(=O)CSC[C@@H](C(=O)N[C@@H](CCN)C(N)=O)NC(=O)[C@H](CCCN)NC(=O)[C@H](C(C)C)NC(=O)[C@H](CC2CCCCC2)NC(=O)[C@H](CCN)NC(=O)[C@@H](CC(C)C)NC(=O)[C@H](C)N(C)C(=O)[C@H](CCC(N)=O)NC(=O)[C@H](Cc2ccc(-c3ccccc3)cc2)NC(=O)[C@H](Cc2ccc(C(=O)O)cc2)NC(=O)[C@H](Cc2cccc(C)c2)NC(=O)[C@H](CC(=O)O)NC(=O)[C@H](Cc2ccc(OCC(=O)O)cc2)NC1=O [Example 5297] ({CH2CO}-[Nva]Y(Carboxymethyl)D[Phe(3-Me)][Phe(4-COOH)][Bip]Q[NMeA][dL][Dab][Cha]V[Orn]C[Dab]-NH2; thioether N-14)	–	–	–	–	IC50 ([2]; nM): 0.0023 µM
CC(C)C[C@H]1NC(=O)[C@H](C)N(C)C(=O)[C@H](Cc2ccc(C(N)=O)cc2)NC(=O)[C@H](Cc2ccc(-c3ccccc3)cc2)NC(=O)[C@H](CCc2ccccc2)NC(=O)[C@H](Cc2cccc(C(F)(F)F)c2)NC(=O)[C@H](CC(=O)O)NC(=O)[C@H](Cc2ccc(C(=O)O)cc2)NC(=O)[C@H]([C@H](C)N)NC(=O)CSC[C@@H](C(=O)N[C@@H](CCN)C(N)=O)NC(=O)[C@H](CCC(N)=O)NC(=O)[C@H](C(C)(C)O)NC(=O)[C@H](CC2CCCCC2)NC(=O)[C@H](CCN)NC1=O [Example 5206] ({CH2CO}-[Abu(3S-NH2)][Phe(4-COOH)]D[Phe(3-CF3)][hPhe][Bip][Phe(4-CONH2)][NMeA][dL][Dab][Cha][Val(3-OH)]QC[Dab]-NH2; thioether N-14)	–	0.05	–	–	IC50 [1, 5]: 10 nM
CC(C)C[C@H]1NC(=O)[C@H](C)N(C)C(=O)[C@H](CCC(N)=O)NC(=O)[C@H](Cc2ccc(-c3ccccc3)cc2)NC(=O)[C@H](CCc2ccccc2)NC(=O)[C@H](Cc2cccc(C(F)(F)F)c2)NC(=O)[C@H](CC(=O)O)NC(=O)[C@H](Cc2cccnc2)NC(=O)[C@H]([C@@H](C)N)NC(=O)CSC[C@@H](C(=O)N[C@@H](CCN)C(N)=O)NC(=O)[C@H](CCCN)NC(=O)[C@H](C(C)C)NC(=O)[C@H](CC2CCCCC2)NC(=O)[C@H](CCN)NC1=O [Example 5244] ({CH2CO}-[Abu(3R-NH2)][3Pal]D[Phe(3-CF3)][hPhe][Bip]Q[NMeA][dL][Dab][Cha]V[Orn]C[Dab]-NH2; thioether N-14)	6.4	0.03	–	–	–
Cc1cccc(C[C@@H]2NC(=O)[C@H](CC(=O)O)NC(=O)[C@H](Cc3ccc(OCC(=O)O)cc3)NC(=O)[C@H](Cc3cccc(CNC(=N)N)c3)NC(=O)CSC[C@@H](C(=O)N[C@@H](CCN)C(N)=O)NC(=O)[C@H](CCCN)NC(=O)[C@H](C(C)C)NC(=O)[C@H](CC3CCCCC3)NC(=O)[C@H](CCN)NC(=O)[C@@H](CC(C)C)NC(=O)[C@H](C)N(C)C(=O)[C@H](CCC(N)=O)NC(=O)[C@H](Cc3ccc(-c4ccccc4)cc3)NC(=O)[C@H](Cc3ccc(C(=O)O)cc3)NC2=O)c1 [Example 5279] ({CH2CO}-[X8]Y(Carboxymethyl)D[Phe(3-Me)][Phe(4-COOH)][Bip]Q[NMeA][dL][Dab][Cha]V[Orn]C[Dab]-NH2; thioether N-14)	3	0.015	–	–	–
Cc1cccc(C[C@@H]2NC(=O)[C@H](CC(=O)O)NC(=O)[C@H](Cc3ccc(OCC(=O)O)cc3)NC(=O)[C@H](CCC3CCCCC3)NC(=O)CSC[C@@H](C(=O)N[C@@H](CCN)C(N)=O)NC(=O)[C@H](CCCN)NC(=O)[C@H](C(C)C)NC(=O)[C@H](CC3CCCCC3)NC(=O)[C@H](CCN)NC(=O)[C@@H](CC(C)C)NC(=O)[C@H](C)N(C)C(=O)[C@H](CCC(N)=O)NC(=O)[C@H](Cc3ccc(-c4ccccc4)cc3)NC(=O)[C@H](Cc3ccc(C(=O)O)cc3)NC2=O)c1 [Example 5186] ({CH2CO}-[hCha]Y(Carboxymethyl)D[Phe(3-Me)][Phe(4-COOH)][Bip]Q[NMeA][dL][Dab][Cha]V[Orn]C[Dab]-NH2; thioether N-14)	4.5	0.03	–	–	–
CC(C)C[C@H]1NC(=O)[C@H](C)N(C)C(=O)[C@H](CCC(N)=O)NC(=O)[C@H](Cc2ccc(-c3ccccc3)cc2)NC(=O)[C@H](CCc2ccccc2)NC(=O)[C@H](Cc2cccc(C(F)(F)F)c2)NC(=O)[C@H](CC(=O)O)NC(=O)[C@H](CCC(N)=O)NC(=O)[C@H](CN2CCOCC2)NC(=O)CSC[C@@H](C(=O)N[C@@H](CCN)C(N)=O)NC(=O)[C@H](CCCN)NC(=O)[C@H](C(C)C)NC(=O)[C@H](CC2CCCCC2)NC(=O)[C@H](CCN)NC1=O [Example 5245] ({CH2CO}-[Ala(morpholin-4-yl)]QD[Phe(3-CF3)][hPhe][Bip]Q[NMeA][dL][Dab][Cha]V[Orn]C[Dab]-NH2; thioether N-14)	–	0.01	–	–	IC50 [1, 5]: 10 nM
CC(=O)Nc1ccc(-c2ccc(C[C@@H]3NC(=O)[C@H](Cc4cccc(C)c4)NC(=O)[C@H](CC(=O)O)NC(=O)[C@H](Cc4ccc(OCC(=O)O)cc4)NC(=O)[C@H](C(C)O)NC(=O)CSC[C@@H](C(=O)N[C@@H](CCN)C(N)=O)NC(=O)[C@H](CO)NC(=O)[C@H](C(C)(C)O)NC(=O)[C@H](CC4CCCCC4)NC(=O)[C@H](CCN)NC(=O)[C@@H](CC(C)C)NC(=O)[C@H](C)N(C)C(=O)[C@H](Cc4ccc(C(N)=O)cc4)NC(=O)[C@H](Cc4ccc(-c5ccccc5)cc4)NC3=O)cc2)cc1 (stereo partly drawn) [Example 5071] ({CH2CO}-[Thr(3ξ)]Y(Carboxymethyl)D[Phe(3-Me)][Bip(4'-NHAc)][Bip][Phe(4-CONH2)][NMeA][dL][Dab][Cha][Val(3-OH)]SC[Dab]-NH2; thioether N-14)	–	–	0.0322	0.0261	–
Cc1cccc(C[C@@H]2NC(=O)[C@H](CC(=O)O)NC(=O)[C@H](Cc3ccc(OCC(=O)O)cc3)NC(=O)[C@H](Cc3cccc(CNC(=O)CCc4ccccc4)c3)NC(=O)CSC[C@@H](C(=O)N[C@@H](CCN)C(N)=O)NC(=O)[C@H](CCCN)NC(=O)[C@H](C(C)C)NC(=O)[C@H](CC3CCCCC3)NC(=O)[C@H](CCN)NC(=O)[C@@H](CC(C)C)NC(=O)[C@H](C)N(C)C(=O)[C@H](CCC(N)=O)NC(=O)[C@H](Cc3ccc(-c4ccccc4)cc3)NC(=O)[C@H](Cc3ccc(C(=O)O)cc3)NC2=O)c1 [Example 5034] ({CH2CO}-[X13]Y(Carboxymethyl)D[Phe(3-Me)][Phe(4-COOH)][Bip]Q[NMeA][dL][Dab][Cha]V[Orn]C[Dab]-NH2; thioether N-14)	–	–	0.0051	0.0031	–
Cc1cccc(C[C@@H]2NC(=O)[C@H](CC(=O)O)NC(=O)[C@H](Cc3ccc(OCC(=O)O)cc3)NC(=O)[C@H](CN3CCOCC3)NC(=O)CSC[C@@H](C(=O)N[C@@H](CCN)C(N)=O)NC(=O)[C@H](CCCN)NC(=O)[C@H](C(C)C)NC(=O)[C@H](Cc3cccnc3)NC(=O)[C@H](CCN)NC(=O)[C@@H](CC(C)C)NC(=O)[C@H](C)N(C)C(=O)[C@H](CCC(N)=O)NC(=O)[C@H](Cc3ccc(-c4ccccc4)cc3)NC(=O)[C@H](Cc3ccc(C(=O)O)cc3)NC2=O)c1 [Example 5039] ({CH2CO}-[Ala(morpholin-4-yl)]Y(Carboxymethyl)D[Phe(3-Me)][Phe(4-COOH)][Bip]Q[NMeA][dL][Dab][3Pal]V[Orn]C[Dab]-NH2; thioether N-14)	–	–	0.0729	0.0607	–
